A word on the melting point: it is the temperature, or range, at which the solid turns liquid. In turn, `CCc1cc(OCc2ccc(-c3ccccc3-c3nnnn3-c3ccc([N+](=O)[O-])cc3)cc2)c2ccccc2n1` came in with a melting point of 204 to 206 °C.

Regarding `COc1ccc2c(=O)cc[nH]c2c1O`, the melting point lay within 228 to 230 °C.

In turn, `Cc1cc(Oc2ncc(C(F)(F)F)cc2Cl)nn1C(=O)Nc1cccc([N+](=O)[O-])c1` gave a melting point of 172 to 174 °C.

`COCCOCCCn1c(C=O)c(Br)c2c3c(c(-c4ccccc4Cl)cc21)C(=O)NC3=O` registered a melting point of 168 to 169 °C.

Consider `Cc1[nH]c(=O)[nH]c1C(=O)c1ccc(F)cc1`, for which the melting point lay in the range of 289 to 292 °C.

Molecule `O=C(NCCCCN1CCCC1)Nc1snc(OCc2c(F)cc(Br)cc2F)c1C(=O)O` had a melting point of 208 °C.

The molecule `CC(=O)CC(=O)NC1=Nc2ccc(Cl)cc2C(c2ccccc2)=NCC1` yielded a melting point of 158 to 159 °C.

`COc1cc(C)nc(NC(=O)NS(=O)(=O)c2cccc3c2OC(C)(C)O3)n1` had a melting point of 180 to 183 °C.

Turning to `O=C1C(c2ccccc2)=C(c2ccccc2)C(=O)N1c1cccc(F)c1`, the melting point is 157 to 158 °C.

The molecule `CCc1cc(C#N)ccc1Nc1c(N[C@H](C)C(C)(C)C)c(=O)c1=O` yielded a melting point of 235 to 237 °C.

As for `Cc1c(N2CCNC(C)C2)c(F)cc2c(=O)c(C(=O)O)cn(C3CC3)c12` (stereo unspecified), the melting point was in the range of 206 to 208 °C.

Molecule `Cc1ccc(N(c2ccccc2)c2ccc(-c3ccc(-c4ccc(N(c5ccccc5)c5ccc(C)cc5)cc4)cc3)cc2)cc1` displayed a melting point of 167 to 168 °C.

The molecule `COc1cc(Nc2c(C#N)cnc3cc(OCc4ccccc4)c(OC)cc23)c(Cl)cc1Cl` showed a melting point of 198 to 200 °C.

`CC(=O)Nc1cccc(OCc2cc([N+](=O)[O-])ccc2C(=O)O)c1` came in with a melting point of 225 °C.

Regarding `Cc1cccc(NC(=O)NCCC(=O)O)c1`, the melting point is 166 °C.

With `CCOC(=O)Cc1ccc(NC(=O)C(Cc2ccccc2)NS(=O)(=O)c2ccc(Cl)cc2)cc1` (racemic), the melting point was 148 to 150 °C.

Consider `CN1CCc2c(Cl)c(O)c(O)c(Sc3ccccc3)c2CC1`, for which the melting point was 173 to 174 °C.

Turning to `N#Cc1oc2cc(Cl)ccc2c1O`, the melting point is 205 °C.

`COC(=O)c1scc(-c2ccccc2)c1-c1ccc(SCOC(C)=O)c(F)c1`: the melting point was 103 to 104 °C.

As for `COc1ccc(C(C)C)cc1-c1cc(-c2nnnn2C2CCN(C(=O)OC(C)(C)C)C2)c(OCc2ccccc2)cc1OCc1ccccc1` (stereo unspecified), the melting point was in the range of 73 to 77 °C.

Regarding `O=c1c(-c2ccc(Cl)cc2)c[nH]n1-c1ncccn1`, the melting point is 190 to 191 °C.

`CC(=NOCc1ccc2nonc2c1)c1ccc(O)c(F)c1` had a melting point of 125 to 126 °C.

Consider `CC(C)(C)C(=O)Cn1cncn1`, for which the melting point is 62 to 64 °C.

`COCCN(C)c1c(S(=O)(=O)C(F)(F)F)c(C#N)nn1-c1c(Cl)cc(C(F)(F)F)cc1Cl` had a melting point of 75 °C.

The molecule `COc1ccc2c(c1)C(=O)C(=O)C1=C2OC2(CCN(CC(O)Cc3ccccc3)CC2)CS1` (stereo unspecified) returned a melting point of 146 to 147 °C.

Take `O=c1oc(-c2ccccc2)cc(O)c1Sc1ccccc1Cl`: the melting point lay in the range of 275 to 280 °C.

On to `NC(=O)c1ccc(CN2C(=O)C3(COc4cc5c(cc43)OCCO5)c3ccccc32)cc1` (stereo unspecified), for which the melting point was 236 to 238 °C.

In turn, `CC(=O)OC(c1cccnc1)c1c(O)c(=O)ccn1C` (stereo unspecified) had a melting point of 153 to 154 °C.

Molecule `CCSC1(c2cc(F)cc(OCc3ccc4c(ccc(=O)n4C)c3)c2)CCOCC1` displayed a melting point of 68 to 72 °C.

In the case of `CCN(CC)S(=O)(=O)Oc1ccc2c(c1)CCC1C2CCC2(C)C(O)C(O)CC12` (stereo unspecified), the melting point was in the range of 121 to 124 °C.

Take `CCC(C(=O)Oc1cc(=O)n(-c2ccccc2)c2ncccc12)c1ccccc1` (stereo unspecified): the melting point lay in the range of 166 to 168 °C.

On to `COc1ccc2c(c1)CC(C)C2=O` (stereo unspecified), for which the melting point is 73 to 76 °C.

In turn, `CC(=O)c1ccc2c(C(=O)c3ccc(OCCN4CCCCC4)cc3)c(-c3ccc(O)cc3)sc2c1` came in with a melting point of 97 to 100 °C.

Molecule `O=C1CCCCCN1C(=O)c1ccccc1` had a melting point of 69 °C.

In the case of `CC(=O)c1ccc2c(c1)CN(C(=O)C(F)(F)F)CC2`, the melting point is 80 °C.

On to `Oc1c(CN2CCSCC2)ncc2c1COC2c1ccccc1` (stereo unspecified), for which the melting point is 185 °C.

Molecule `COc1ccc(COC(=O)NC(CO)Cc2ccc(O)cc2)cc1OC` (stereo unspecified) had a melting point of 152 to 155 °C.

Consider `Clc1ccc(Cl)c(-c2csc(NC3=NCCCN3)n2)c1`, for which the melting point lay in the range of 188 to 189 °C.

`CCCCc1oc2ccccc2c1-c1ccc(-c2ccc(OCC(=O)O)cc2)cc1` gave a melting point of 126 to 128 °C.

In turn, `NS(=O)(=O)c1ccc(-n2nc(CCCNC(=O)Nc3ccc(Cl)cc3)cc2-c2ccccc2)cc1` yielded a melting point of 103 to 110 °C.

Molecule `CCOC(=O)Cn1c2cccccc-2c(C#N)c1=O` returned a melting point of 149 to 151 °C.

In the case of `CCn1nc2c(N)nc3ccccc3c2c1CCCCO`, the melting point fell in the range of 159 to 160 °C.

`CCOC(=O)C1C(=O)C=C(OC(C)OCC)CC1c1ccc(C)cc1` (stereo unspecified) yielded a melting point of 59 to 60 °C.

For the molecule `COCCOc1cccc(-c2ccc(C3CCN(S(=O)(=O)C(C)(C)C(=O)NO)CC3)cc2C)n1`, the melting point was in the range of 134 to 138 °C.

Consider `COC(=O)Nc1cccc(C)c1COc1cccn2c(C=O)c(C)nc12`, for which the melting point lay in the range of 196 to 198 °C.

`CCN(CC)Cc1nnc(-c2ncn3c2CN(C)C(=O)c2ccccc2-3)o1` showed a melting point of 235 to 238 °C.

In turn, `CCOC(=O)C1=C(N)NC(C)=CC1c1ccccc1Cl` (stereo unspecified) came in with a melting point of 171 °C.

Molecule `CC(=O)C1=CCC2C3CCC4CC=CCC4(C)C3CCC12C` (stereo unspecified) displayed a melting point of 143 to 145 °C.

In the case of `CCOC(=O)c1n[nH]c(C(=O)OCC)c1C(O)c1ccc(Cl)cc1[N+](=O)[O-]` (stereo unspecified), the melting point turned out to be 60 °C.

In turn, `CN1C(=O)C(NC(=S)Nc2ccccc2)N=C(c2ccccc2)c2ccccc21` (stereo unspecified) registered a melting point of 209 to 211 °C.

In turn, `COc1ccccc1-n1c(=O)[nH]c2c(C(N)=O)nc(-c3cccc(C(F)(F)F)c3)nc21` gave a melting point of 271 to 275 °C.

Consider `CCOC(=O)c1cn2c3c(c(F)c(F)cc3c1=O)OCC2C` (stereo unspecified), for which the melting point lay in the range of 257 to 258 °C.

In turn, `O=C(O)C(Cl)(Cl)CCCCCCCCCCCCC(Cl)(Cl)C(=O)O` showed a melting point of 114 °C.

`O=C(Nc1ccc(N2CCOCC2)c(C(F)(F)F)c1)c1ccc(F)c(OCc2cnc3ccccc3c2)c1` had a melting point of 81 to 84 °C.

On to `CCOC(=O)C1=C(C)NC(COC(C)=O)=C(C(=O)OCC)C1c1ccccc1OC` (stereo unspecified), for which the melting point was 84 to 86 °C.

Take `CC(C(=O)NC1CCCCC1)N1CCN(c2ccccn2)CC1` (stereo unspecified): the melting point was 126 to 128 °C.

Turning to `COc1ccc(-c2ccc(C(=O)CCC(=O)O)cc2)cc1`, the melting point fell in the range of 197 to 199 °C.

The molecule `O=C(NCCCN1CCN(c2cccc(Cl)c2)CC1)NC12CC3CC(CC(C3)C1)C2` registered a melting point of 174 to 175 °C.

Turning to `O=C1Nc2ccccc2C1CCCCN1CC=C(c2ccc(Cl)cc2)CC1` (stereo unspecified), the melting point lay in the range of 122 to 124 °C.

`Clc1csc2c(Cl)cccc12` registered a melting point of 100 to 102 °C.

On to `Cn1c(C(F)F)nn(-c2cc(O)c(Cl)cc2F)c1=O`, for which the melting point was 153 to 155 °C.

Source of the values: a melting point compilation (Tetko et al.; mined from patent text by program, amines drawn as free bases though some values may be those of a salt).
